In article PMC7933930, “Development of a small molecule that corrects misfolding and increases secretion of Z α1‐antitrypsin” (EMBO Molecular Medicine, 2021):
Like-named read-outs stand apart in the source and are kept apart here.

Assays:
Assay type in all cases: cell-based
[1] = tested on: Z α1‐antitrypsin secretion in iPSC‐derived human hepatocytes (ZZ genotype); test: Secretion of Z α1‐antitrypsin from ZZ iPSC‐derived human hepatocytes; settings: for EC50: Hepatocyte
Experimental: The ability of GSK716 to block Z α1‐antitrypsin polymerisation in the ER during folding was assessed by adding GSK716 to CHO‐TET‐ON‐Z‐A1AT cells (Ordóñez et al, 2013) with simultaneous induction of Z α1‐antitrypsin expression using doxycycline. […] Similar potency between the effects on secretion and polymerisation was observed throughout members of the lead series supporting the hypothesis that these effects are caused by the same pharmacological mode of action.
(§1) Figure 2 GSK716 inhibits polymerisation of Z α1‐antitrypsin in cell models of disease • A GSK716 was added to CHO‐TET‐ON‐Z‐A1AT cells (Ordóñez et al, 2013) with simultaneous induction of Z α1‐antitrypsin expression using doxycycline, and polymer load was quantified with the 2C1 monoclonal antibody that is specific to pathological polymers of α1‐antitrypsin (Miranda et al, 2010). […] Data were normalised to vehicle and a control compound from the GSK716 series at saturating concentration. […] It induced an approximately threefold increase in secreted levels of Z α1‐antitrypsin compared with vehicle control. […] For every time point, NP‐40‐soluble and NP‐40‐insoluble fractions were separated and immunoprecipitated with the 2C1 mAb and resolved by 4–12% w/v SDS–PAGE and α1‐antitrypsin detected by immunoblotting. […] Cell viability was measured by Cell Counting Kit‐8. […] Samples were resolved by 4–12% w/v acrylamide SDS–PAGE and detected by autoradiography. • H The graphs show the effect of GSK716 on intracellular and extracellular Z α1‐antitrypsin (mean ± SEM, n = 2).
The accumulation and clearance of Z α1‐antitrypsin polymer was measured with the 2C1 monoclonal antibody that is specific for polymerised antitrypsin in CHO‐TET‐ON‐Z‐α1AT cells (Ordóñez et al, 2013) and iPSC‐derived hepatocytes generated from a patient with a PiZZ genotype (Yusa et al, 2011). Secretion of Z α1‐antitrypsin was determined by TR‐FRET. Cell viability was analysed with Cell Counting Kit‐8 (Sigma) after treating the cells with 10 µM GSK716 or 0.1% v/v DMSO (vehicle) and an increasing concentration of tunicamycin (0.8–0.01 µg/ml).

[2] = tested on: Z α1‐antitrypsin polymers in CHO cells; test: Soluble and insoluble polymers in CHO cells expressing Z α1‐antitrypsin (NP‐40 fractions, 2C1 immunoprecipitation, immunoblot); settings: pre‐treatment 48 h with 10 μM GSK716, CHO cells induced with doxycycline
Experimental: as §1, with “control. This was apparent even after polymers had been allowed to form. Scale bar: 100 µm. Data presented as mean ± SD, n = 8 (secretion) and n = 6 (polymer inhibition). • E CHO tetracycline‐inducible cells expressing Z α1‐antitrypsin were induced with 0.5 μg/ml doxycycline for 48 h and treated with 10 μM GSK716.” for “control.”, “2). […]” for “2).”

Histamine H1 = Histamine H1 (Homo sapiens, UniProt P35367); test: Off‐target panel: Histamine H1 (DRX); settings: Antagonist, read-out: Mean (PXC50) (converted)
Experimental: (§2) GSK716 selectivity and PK properties were profiled in order to investigate the suitability of GSK716 for progression into in vivo studies and the potential for taking it forward as a clinical candidate for testing in humans. Since GSK716 results in loss of inhibitory activity of α1‐antitrypsin, the effect of the compound was assessed on other closely related serpins. […] Furthermore, there were no off‐target effects in a panel of assays considered predictive of known safety liabilities that precluded further development of GSK716 (Table EV1).

MRGPRX2 = MRGPRX2 (Homo sapiens, UniProt Q96LB1); test: Off‐target panel: MRGPRX2 Agonist (DRX); settings: read-out: Mean (PXC50)
Experimental: as §2

Serotonin 5HT2B = Serotonin 5HT2B (Homo sapiens, UniProt P41595); test: Off‐target panel: Serotonin 5HT2B (DRX)
Experimental: as §2

Chain of Serotonin 5HT2B (P41595 whole entry): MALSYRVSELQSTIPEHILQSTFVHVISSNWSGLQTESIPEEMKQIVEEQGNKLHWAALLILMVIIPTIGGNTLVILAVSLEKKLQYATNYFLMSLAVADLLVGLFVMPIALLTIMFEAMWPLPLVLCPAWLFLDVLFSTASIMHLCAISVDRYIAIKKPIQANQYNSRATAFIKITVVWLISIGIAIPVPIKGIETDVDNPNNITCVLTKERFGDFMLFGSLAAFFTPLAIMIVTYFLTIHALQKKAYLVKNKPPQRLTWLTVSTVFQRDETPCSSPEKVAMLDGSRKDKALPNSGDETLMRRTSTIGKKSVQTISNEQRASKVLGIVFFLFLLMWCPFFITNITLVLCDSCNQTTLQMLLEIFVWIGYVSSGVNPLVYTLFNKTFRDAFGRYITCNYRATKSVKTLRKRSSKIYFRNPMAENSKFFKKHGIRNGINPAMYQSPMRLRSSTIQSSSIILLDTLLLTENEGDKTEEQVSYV
Chain of MRGPRX2 (Q96LB1 whole entry, species assumed): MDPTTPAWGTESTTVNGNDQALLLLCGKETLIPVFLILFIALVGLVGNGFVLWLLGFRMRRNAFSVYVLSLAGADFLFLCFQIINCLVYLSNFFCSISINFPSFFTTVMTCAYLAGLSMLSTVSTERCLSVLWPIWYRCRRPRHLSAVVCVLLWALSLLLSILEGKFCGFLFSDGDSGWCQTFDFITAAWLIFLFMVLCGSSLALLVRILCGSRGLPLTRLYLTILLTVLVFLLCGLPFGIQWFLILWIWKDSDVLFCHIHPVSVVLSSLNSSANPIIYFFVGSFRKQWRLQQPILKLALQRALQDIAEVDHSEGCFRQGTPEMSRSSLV
Chain of Histamine H1 (P35367 whole entry): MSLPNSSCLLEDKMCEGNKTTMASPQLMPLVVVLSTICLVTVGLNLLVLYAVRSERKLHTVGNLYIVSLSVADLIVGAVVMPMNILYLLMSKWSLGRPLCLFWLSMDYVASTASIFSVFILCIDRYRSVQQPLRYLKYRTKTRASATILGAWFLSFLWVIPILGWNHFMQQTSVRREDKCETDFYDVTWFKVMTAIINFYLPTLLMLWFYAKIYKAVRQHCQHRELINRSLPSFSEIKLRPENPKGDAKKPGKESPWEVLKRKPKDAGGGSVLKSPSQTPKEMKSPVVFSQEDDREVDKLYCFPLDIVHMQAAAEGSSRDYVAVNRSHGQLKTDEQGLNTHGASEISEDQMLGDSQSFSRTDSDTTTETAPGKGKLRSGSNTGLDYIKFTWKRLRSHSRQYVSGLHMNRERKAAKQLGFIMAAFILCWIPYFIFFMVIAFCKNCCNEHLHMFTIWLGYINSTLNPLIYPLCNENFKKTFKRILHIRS

CCC[C@@H](NC(=O)c1cccc2c1CC(=O)N2)[C@@H](O)c1cccc(F)c1C [GSK716]
EC50 ([1]; ZZ iPSC‐derived human hepatocytes, n = 14, read-out: mean pEC50, secretion (converted)): 0.316 µM
EC50 ([1]; Homo sapiens, as quoted for the PK‐PD target concentration, cell system not stated there, read-out: cellular secretion assay EC50): 0.3 µM
increase in secreted levels of Z α1‐antitrypsin compared with vehicle control ([1]; ZZ iPSC‐derived human hepatocytes): approximately threefold
formation of soluble and insoluble polymers [2]: significantly reduced
IC50 (Histamine H1): 10 µM
EC50 (MRGPRX2): > 100 µM
EC50 (Serotonin 5HT2B): 39.8 µM
